Assays:
NCI-H358 cell line = assay: Combination effect with targeted anticancer agent, cell viability (CellTiter-Glo, combination index), H358; assay type: cell-based; conditions: H358 cells, 7 days, Example 1 compound 0.0001 to 0.1 µM, Fig. 1
Description: Test for evaluating the combination effect of targeted anticancer agent- Cell Viability
In this experimental example, we examined whether the compound according to the present invention has a synergistic effect on cancer cell death when used in combination with a target anticancer agent related to another RAS signal transduction pathway.
NCI-H358 cell line (ATCC catalog no. CRL-5807, USA) or EGFR exon 19 deletion cancer cell line PC-9 (Riken, Japan catalog no. RCB4455) were seeded in a well plate (500 cells per well for H358 and 50 cells per well for PC-9) in RPMI1640 (Gibco, USA catalog no. 22400-089) medium containing 10% fetal bovine serum (Excel Bio, USA catalog no. FSP500) and cultured for one day at 37°C under 5% CO2 conditions. […] Cell survival analysis was performed by luminescence analysis using the Promega CellTiter-Glo Luminescent Cell Viability Assay Kit (Promega, catalog number G7573), and luminescence was measured using a PerkinElmer 2014 EnVision plate reader. The inhibition rate was calculated from the measured relative luminescence value in the same manner as in Experimental Example 3, and the combination index (CI) between the compound of the present invention and the target anticancer agent was calculated using the following equation. […]

MIA-PaCa-2 = assay: Reactive oxygen species (ROS) production assay; assay type: cell-based; conditions: MIA-PaCa-2 cells, 10 µM, 24 hours; Figure 3
Description: Reactive oxygen species (ROS) production assay
In this experimental example, it was examined that the compound according to the present invention has the effect of increasing reactive oxygen in tumor cells.
MIA-PaCa-2 (Korea Cell Line Bank KCLB No. 21420), a cancer cell line harboring KRAS G12C mutation, was cultured in a cell culture medium containing RPMI1640 (Gibco, USA, catalog no. 11875-119), 10% fetal bovine serum (HyClone, USA, catalog no. SH30919.03), and 1 × diluted HyClone Antibiotic Antimycotic solution (HyClone, USA, catalog no. SV30079.01). 3 × 10^5 cells were seeded per well in a 6-well plate and cultured for 1 day at 37°C under 5% CO2 conditions. […] The cells were then collected in a microtube and analyzed for fluorescence using a BD LSRFortessa™ X-20 Cell Analyzer (BD Biosciences, USA) (excitation wavelength: 488 nm, emission wavelength: 535 nm). The fluorescence intensity due to the increase in reactive oxygen species was measured for 10,000 cells. Among the cells treated with 500 µM hydrogen peroxide, which was the positive control, the section in which the fluorescence intensity increased compared to the cells treated with the blank sample was found, and the average fluorescence intensity of the cells within this section was calculated. […]

In the case of `CNCc1ccccc1-c1c[se]c([C@@H](C)Nc2nc(C)nc3cc(OC)c(OC)cc23)c1` [Example 1, (R)-6,7-dimethoxyl-2-methyl-N-(1-(4-(2-((methylamino)methyl)phenyl)selenophen-2-yl)ethyl)quinazolin-4-amine], the “synergistic effect inhibiting cell growth in combination with sotorasib” value (NCI-H358 cell line; sotorasib 0.001 to 1 µM) is reported as “strong synergistic effect”, the “synergistic effect inhibiting cell growth in combination with trametinib” value (NCI-H358 cell line; trametinib 0.001 to 0.1 µM) is reported as “strong synergistic effect” and the “ROS production compared to the blank sample” value (MIA-PaCa-2) is reported as “significantly increased ROS production”.
